Calls of active or inactive are those of the source.
Tests used:
[1] = target: DNA dC->dU-editing enzyme APOBEC-3G (Homo sapiens, UniProt Q9HC16); type: functional;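 note: Dose-response counterscreen measuring inhibition of APOBEC3G DNA deaminase activity, run while confirming APOBEC3A inhibitors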
[2] = target: DNA dC->dU-editing enzyme APOBEC-3A (Homo sapiens, UniProt P31941); test: Dose Response confirmation of small molecule APOBEC3A DNA Deaminase Inhibitors via a fluorescence-based single-stranded DNA deaminase assay. [Related pubchem assays (depositor defined):AID493011, AID493024]; type: functional
[3] = target: T1, High affinity choline transporter 1 (Homo sapiens, UniProt Q9GZV3); test: CHT inhibitors, dose response, cell-based, 5-point CRC, membrane potential dye (AID 504840); type: functional
T1 sequence (Q9GZV3 whole entry): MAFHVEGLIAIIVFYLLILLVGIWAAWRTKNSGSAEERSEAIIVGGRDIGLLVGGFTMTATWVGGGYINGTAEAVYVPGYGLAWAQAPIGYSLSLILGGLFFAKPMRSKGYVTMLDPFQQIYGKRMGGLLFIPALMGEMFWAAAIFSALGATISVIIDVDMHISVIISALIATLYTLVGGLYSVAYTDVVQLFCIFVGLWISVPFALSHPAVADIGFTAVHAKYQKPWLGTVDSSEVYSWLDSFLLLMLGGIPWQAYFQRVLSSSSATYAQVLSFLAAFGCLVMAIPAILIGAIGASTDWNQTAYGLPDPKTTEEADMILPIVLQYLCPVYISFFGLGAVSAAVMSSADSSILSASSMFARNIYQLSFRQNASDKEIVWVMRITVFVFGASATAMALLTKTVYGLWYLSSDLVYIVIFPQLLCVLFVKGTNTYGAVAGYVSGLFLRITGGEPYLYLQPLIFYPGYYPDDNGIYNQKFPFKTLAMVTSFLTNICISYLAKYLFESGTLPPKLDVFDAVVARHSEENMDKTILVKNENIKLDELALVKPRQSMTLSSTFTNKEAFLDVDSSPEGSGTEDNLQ

[4] = target: Troponin, cardiac muscle (Homo sapiens, UniProt P19429+P45379+P63316); test: Fluorescence-based biochemical high throughput dose response assay for activators of the calcium sensitivity of cardiac Regulated Thin Filaments (RTF). [Related pubchem assays (depositor defined):AID493008, AID493018, AID504382, AID504383]; type: protein-complex assay
[5] = HEp-2 cell cytotoxicity, dose response, cytotoxicity control for RSV inhibitor project, HTS (AID 2410); type: functional; conditions: human respiratory syncytial virus
[6] = target: Beta-galactosidase (Escherichia coli, UniProt Q8VNN2); test: beta-galactosidase enzyme inhibitors and activators, dose response, artefact control for CCR6 antagonist project, biochemical, E. coli enzyme, set 3 (AID 504712); type: functional
[7] = target: Potassium voltage-gated channel subfamily KQT member 2 (Rattus norvegicus, UniProt O88943, W236L); test: KCNQ2 channel potentiators, dose response, mechanism study for KCNQ2 potentiator project, cell-based, automated electrophysiology (AID 2603); type: functional
[8] = target: Cytochrome P450 2D6 (Homo sapiens, UniProt P10635);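 note: CYP2D6 member of a cytochrome P450 panel assay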
[9] = tested on: Trypanosoma cruzi; test: growth inhibition of intracellular Trypanosoma cruzi, dose response, cell-based, plate reader, dry powder, set 3 (AID 493197); type: functional
[10] = cytotoxicity in NIH/3T3 mouse fibroblasts, dose response, cytotoxicity control, cell-based, mouse embryonic fibroblasts, dry powder, set 2 (AID 493247); type: functional; conditions: Fibroblast
[11] = target: T2, Voltage-gated N-type calcium channel alpha-1B subunit/Amyloid beta A4 precursor protein-binding family A member 1 (Homo sapiens, UniProt Q00975+Q02410); type: protein assay
[12] = target: T2, Voltage-gated N-type calcium channel alpha-1B subunit/Amyloid beta A4 precursor protein-binding family A member 1; type: protein assay; remark: listed apart in the source
[13] = control 3'UTR Renilla luciferase suppression, dose response, counter-screen for Shn3 inhibitor project, cell-based, Clone20-Shn3RL, cherry-picked (AID 624133); type: functional
[14] = Shn3 3'UTR reporter inhibitors, dose response, cell-based, Clone20 osteoblasts, firefly luciferase, cherry-picked (AID 624132); type: functional;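 note: firefly luciferase luminescence from reporter carrying the Shn3 3'UTR in osteoblasts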
[15] = HepG2 cell cytotoxicity, dose response, cytotoxicity control for Shn3 inhibitor project, CellTiter-Glo, cherry-picked (AID 624134); type: functional, cell-based
[16] = tested on: BJ; test: cytotoxicity toward BJ-TERT-LT-ST fibroblasts, dose response, cell-based, RAS-independent, luminescence (AID 1935); type: functional; conditions: Homo sapiens;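 note: BJ fibroblasts immortalized with TERT plus LT and ST oncogenes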
[17] = CEM21 lymphoblast cell cytotoxicity, dose response, cytotoxicity control for viral fusion inhibitor project, CellTiter-Glo luminescence, cherry-picked (AID 652042); type: functional, cell-based;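 note: potency for signal decrease meaning cytotoxicity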
[18] = target: T3, Replicative DNA helicase DnaB (Mycobacterium tuberculosis, UniProt P9WMR3); test: DnaB intein splicing inhibitors, dose response, biochemical, cell-free fluorescence (AID 449749); type: functional
T3 sequence (P9WMR3 whole entry): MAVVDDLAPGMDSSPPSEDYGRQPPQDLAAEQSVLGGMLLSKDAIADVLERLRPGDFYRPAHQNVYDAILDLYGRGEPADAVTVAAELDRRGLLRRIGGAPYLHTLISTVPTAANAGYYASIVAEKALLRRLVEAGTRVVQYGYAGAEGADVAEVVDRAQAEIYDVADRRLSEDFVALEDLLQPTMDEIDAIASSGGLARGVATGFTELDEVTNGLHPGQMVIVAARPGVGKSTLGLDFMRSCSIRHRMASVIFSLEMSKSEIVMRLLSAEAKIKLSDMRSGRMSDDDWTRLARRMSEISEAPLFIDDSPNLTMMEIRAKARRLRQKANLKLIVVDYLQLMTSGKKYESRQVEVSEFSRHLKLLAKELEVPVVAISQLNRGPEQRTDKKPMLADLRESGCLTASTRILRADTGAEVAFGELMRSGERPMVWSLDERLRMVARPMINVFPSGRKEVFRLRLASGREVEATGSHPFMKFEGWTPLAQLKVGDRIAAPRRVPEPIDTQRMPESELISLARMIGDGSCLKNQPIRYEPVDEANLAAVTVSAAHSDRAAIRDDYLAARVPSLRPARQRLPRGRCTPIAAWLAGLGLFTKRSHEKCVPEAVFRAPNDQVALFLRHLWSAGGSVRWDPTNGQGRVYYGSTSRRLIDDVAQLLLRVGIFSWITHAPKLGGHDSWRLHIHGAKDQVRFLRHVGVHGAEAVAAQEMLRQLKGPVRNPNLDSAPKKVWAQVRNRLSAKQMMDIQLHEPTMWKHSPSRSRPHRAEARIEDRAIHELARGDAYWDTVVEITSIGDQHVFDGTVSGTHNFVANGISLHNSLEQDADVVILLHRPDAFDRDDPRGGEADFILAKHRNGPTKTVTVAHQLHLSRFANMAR

[19] = inhibitors of clade B AD8 Env fusion, dose response, cell-based, cherry-pick (AID 652062); type: functional;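 note: luciferase signal from cell-cell fusion driven by HIV-1 clade B AD8 Env; potency is for inhibitors of fusion seen as a drop in luminescence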
[20] = target: T4, Protein RecA (Mycobacterium tuberculosis, UniProt P9WHJ3); test: Fluorescence Cell-Free Homogeneous Dose Retest to Identify Inhibitors of RecA-Intein Splicing Activity. [Related pubchem assays (depositor defined):AID2097, AID2223, AID489010, AID492950]; type: functional
T4 sequence (P9WHJ3 whole entry): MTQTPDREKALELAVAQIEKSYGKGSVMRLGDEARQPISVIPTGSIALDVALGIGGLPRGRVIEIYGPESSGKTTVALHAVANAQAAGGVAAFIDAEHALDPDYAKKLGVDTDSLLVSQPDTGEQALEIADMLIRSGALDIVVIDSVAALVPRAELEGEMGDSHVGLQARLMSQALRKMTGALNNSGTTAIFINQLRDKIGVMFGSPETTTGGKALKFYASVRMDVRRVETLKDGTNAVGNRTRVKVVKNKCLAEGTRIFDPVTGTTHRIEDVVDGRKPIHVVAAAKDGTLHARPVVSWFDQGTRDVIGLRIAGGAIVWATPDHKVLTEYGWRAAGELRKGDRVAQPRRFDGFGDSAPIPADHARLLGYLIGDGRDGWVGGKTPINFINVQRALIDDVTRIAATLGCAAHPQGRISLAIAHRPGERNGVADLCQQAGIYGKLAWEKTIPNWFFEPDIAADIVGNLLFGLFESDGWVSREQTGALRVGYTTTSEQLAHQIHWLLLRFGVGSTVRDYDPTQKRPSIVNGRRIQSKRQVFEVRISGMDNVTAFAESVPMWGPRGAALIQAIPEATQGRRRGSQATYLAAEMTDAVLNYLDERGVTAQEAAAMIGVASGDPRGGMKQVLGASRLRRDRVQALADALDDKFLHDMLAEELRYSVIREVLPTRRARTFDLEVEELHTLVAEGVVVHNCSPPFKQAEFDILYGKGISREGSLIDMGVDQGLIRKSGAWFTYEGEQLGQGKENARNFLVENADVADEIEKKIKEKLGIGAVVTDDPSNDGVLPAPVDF

[21] = cytotoxicity toward DRD oncogenic fibroblasts, dose response, cell-based, non-viral oncogenic, luminescence (AID 1934); type: functional; conditions: Homo sapiens
[22] = target: Nonstructural protein 1 (Influenza A virus, UniProt Q194T2); type: functional, Influenza A virus (A/California/07/2009(H1N1))
[23] = tested on: BJ; test: cells; type: functional, cell-based; conditions: Homo sapiens
[24] = tested on: BJ; test: cytotoxicity toward Ras-transformed BJeLR fibroblasts, dose response, cell-based, alamar blue fluorescence, cherrypicked samples (AID 2631); type: functional; conditions: Homo sapiens;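 note: confirmatory dose-response assay in RAS-dependent BJ fibroblasts engineered with TERT, LT and ST, with cytotoxicity read by fluorescence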
[25] = ZM109 Env clade C HIV-1 fusion inhibitors, dose response, HeLa effector, CEM target cells, luciferase, cherry-pick (AID 652058); type: functional, cell-based
[26] = tested on: INS1; test: beta cell apoptosis inhibitors, cytokine rescue, dose response, luminescence, retest (AID 449756); type: functional, cell-based; conditions: Rattus norvegicus;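 note: cell death triggered by IL-1 beta plus TNF-alpha plus IFN-gamma mixture; protective hits raise ATP signal compared with cytokine alone wells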
[27] = Intein inhibitors as potential Tuberculosis drugs, a cytotoxicity screen. [Related pubchem assays (depositor defined):AID2221, AID2223, AID434968, AID435010, AID449749, AID449750, AID489010]; type: functional
[28] = off-target signal loss in HeLa-CEM21 co-culture – HeLa F-luc CTL cells, cherry-picked, counter-screen for HIV-1 Env fusion inhibitor project, dose response (AID 652040); type: functional, cell-based;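 note: potency for signal decrease marking cytotoxic or nonspecific inhibition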
[29] = tested on: BJ; test: cytotoxicity toward BJ-TERT fibroblasts, dose response, cell-based, RAS-independent, luminescence (AID 1933); type: functional; conditions: Homo sapiens
[30] = inhibitors of HIV Env-driven cell fusion, dose response, cherry-pick (AID 652057); type: functional, cell-based

**Q.** For CC(=O)OCCCCCCCCCCC[N+]1(C)CCCCC1, which IC50 [1] is on record?
**A.** 2.17 µM (active)

**Q.** And the IC50 [2]?
**A.** 2.03 µM (active)

**Q.** What about the IC50 [3] of the same molecule?
**A.** 14.1 µM (active)

**Q.** Which EC50 [4] does the source give for CCn1c(=O)c(C(=O)CN2CCCc3ccccc32)c(N)n(Cc2ccccc2)c1=O here?
**A.** > 23.8 µM (inactive)

**Q.** What about the CC50 [5] of the same molecule?
**A.** 12.4 µM (active)

**Q.** With CCOCc1cnc(C)nc1NCC(=O)c1c(C)[nH]c2ccc(OC)cc12 as the molecule, how does the IC50 [1] read?
**A.** 5.53 µM (active)

**Q.** And the IC50 [2]?
**A.** 2.59 µM (active)

**Q.** For CCOC(=O)c1c(-c2ccc(C)o2)csc1NC(=S)NC(=O)N(C)C, which IC50 [6] is on record?
**A.** > 66.6 µM (inactive)

**Q.** What about the EC50 [7] of the same molecule?
**A.** 3.01 µM (active)

**Q.** What about the AC50 [8] of the same molecule?
**A.** inconclusive

**Q.** With O=C(N/N=C/c1ccc([N+](=O)[O-])o1)C1CCCCC1 as the molecule, how does the AC50 [9] read?
**A.** 0.501 µM (active)

**Q.** What about the AC50 [10] of the same molecule?
**A.** 21.5 µM (active)

**Q.** Which EC50 [4] does the source give for COc1cc(OC)c(C(=O)OC(C)C(=O)Nc2cccc(C(F)(F)F)c2)cc1OC (centres undefined) here?
**A.** > 71.5 µM (inactive)

**Q.** Which IC50 [6] does the source give for CCOc1ccc(N2C(=O)CC(Sc3nnnn3-c3ccccc3)C2=O)cc1 (centres undefined) here?
**A.** > 66.6 µM (inactive)

**Q.** And the IC50 [11]?
**A.** 13.4 µM (active)

**Q.** And the IC50 [12]?
**A.** 3.74 µM (active)

**Q.** And the AC50 [13]?
**A.** 12.1 µM (active)

**Q.** And the AC50 [14]?
**A.** 11.5 µM (active)

**Q.** And the AC50 [15]?
**A.** 40.3 µM (active)

**Q.** With C(=N\Nc1nncc2ccccc12)/c1ccccn1 as the molecule, how does the EC50 [16] read?
**A.** 4.42 µM (active)

**Q.** What about the AC50 [17] of the same molecule?
**A.** 4.9 µM (active)

**Q.** And the AC50 [18]?
**A.** 3.19 µM (active)

**Q.** What about the AC50 [19] of the same molecule?
**A.** 4.65 µM (active)

**Q.** And the EC50 [20]?
**A.** 1.29 µM (active)

**Q.** What about the EC50 [21] of the same molecule?
**A.** 5.08 µM (inconclusive)

**Q.** And the IC50 [22]?
**A.** 4.45 µM (active)

**Q.** What about the EC50 [23] of the same molecule?
**A.** 10.8 µM (inconclusive)

**Q.** What about the EC50 [24] of the same molecule?
**A.** 3.77 µM (active)

**Q.** And the AC50 [25]?
**A.** < 0.26 µM (active)

**Q.** And the AC50 [26]?
**A.** 1.58 µM (active)

**Q.** And the CC50 [27]?
**A.** 6.58 µM (active)

**Q.** What about the AC50 [28] of the same molecule?
**A.** 4.38 µM (active)

**Q.** What about the EC50 [29] of the same molecule?
**A.** 8.71 µM (inconclusive)

**Q.** What about the AC50 [30] of the same molecule?
**A.** 0.478 µM (active)
